In the NIST ThermoML archive (doi:10.1016/j.fluid.2007.07.070):
± gives the expanded uncertainty stated by the source.

Settings: Crystal; DTA

Normal melting temperature: 260.6 ± 0.5 °C
SMILES: O=C1c2ccccc2C(=O)C1c1nc2ccccc2cc1O [1H-indene-1,3(2H)-dione, 2-(3-hydroxy-2-quinolinyl)-]
